Test results from PubChem BioAssay (NCI).
“And” between values parts separate entries of the source, which are not always exact repeats. Identical values can stand only once.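 Compound exposure: 48 hours, 5 concentrations, 96-well plates. The concentration for 50% growth inhibition is given as GI50. TGI: total growth inhibition.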

Experiments:
Experiment in all cases: NCI tumour cell line growth inhibition, 48 h
786-0 renal = tested on: 786-0 renal
A549 NSCLC = tested on: A549 NSCLC
HOP-62 NSCLC = tested on: HOP-62 NSCLC
HS 578T breast = tested on: HS 578T breast
MCF7 breast = tested on: MCF7 breast
MDA-MB-435 = tested on: MDA-MB-435
OVCAR-3 ovarian = tested on: OVCAR-3 ovarian
SF-268 CNS = tested on: SF-268 CNS
SK-MEL-2 melanoma = tested on: SK-MEL-2 melanoma
SN12C renal = tested on: SN12C renal

Structure (SMILES)	GI50 (786-0 renal)	TGI (786-0 renal)	GI50 (A549 NSCLC)	TGI (A549 NSCLC)	GI50 (HOP-62 NSCLC)	TGI (HOP-62 NSCLC)	GI50 (HS 578T breast)	TGI (HS 578T breast)	GI50 (MCF7 breast)	TGI (MCF7 breast)	GI50 (MDA-MB-435)	TGI (MDA-MB-435)	GI50 (OVCAR-3 ovarian)	TGI (OVCAR-3 ovarian)	GI50 (SF-268 CNS)	TGI (SF-268 CNS)	GI50 (SK-MEL-2 melanoma)	TGI (SK-MEL-2 melanoma)	GI50 (SN12C renal)	TGI (SN12C renal)
O=C(Nc1ccc(Cl)cc1Cl)c1ccc(NC2=C(Cl)C(=O)N(Cc3ccccc3)C2=O)cc1	21.6 µM	> 100 µM	25.9 µM	66.1 µM	20.2 µM	40.5 µM	23.5 µM	47 µM	5.91 µM	30.6 µM	32.5 µM	> 100 µM	16.3 µM	33.5 µM	16.5 µM	36.6 µM	54.1 µM	> 100 µM	20.3 µM	42.8 µM
CCCN(CCC)CCCNCc1cc(I)cc(C)c1O	13.6 µM	26.4 µM	19.4 µM	42.4 µM	13.4 µM	26.2 µM	11.1 µM	24.6 µM	17.6 µM	31.8 µM	12 µM	24.8 µM	14.8 µM	27.9 µM	15.9 µM	29.4 µM	20.1 µM	36.3 µM	28.7 µM	> 100 µM
Cc1cc(C)nc(NC(N)=NCCc2ccccc2)n1	4.86 µM	> 100 µM	3.03 µM	89 µM	3.16 µM	53.1 µM	4.41 µM	54.9 µM	2.72 µM	73.6 µM	1.52 µM	4.49 µM	2.76 µM	8.35 µM	3.4 µM	41.9 µM	12.6 µM	> 100 µM	3.2 µM	35.8 µM
O=C(c1ccccc1)c1c(NCC(O)CN2CCCC2)n(Cc2ccccc2)c(=O)n(Cc2ccccc2)c1=O (configuration not stated)	18.9 µM	35.5 µM	32.3 µM	> 100 µM	21.7 µM	49.5 µM	16.2 µM	37.8 µM	42.5 µM	> 100 µM	17.4 µM	32.8 µM	18.4 µM	36.2 µM	19.6 µM	40.8 µM	20.5 µM	39 µM	19.3 µM	39.1 µM
CCSc1nnc2c(-c3ccccc3)n[nH]c2n1	–	> 100 µM	–	> 100 µM	–	> 100 µM	–	> 100 µM	–	> 100 µM	–	> 100 µM	–	> 100 µM	–	> 100 µM	–	> 100 µM	–	–
COc1cccc([C@H]2CC(=O)c3cc4c(cc3N2)OCO4)c1	0.0789 µM	> 100 µM	0.125 µM	> 100 µM	2.56 µM	> 100 µM	–	83.3 µM	0.0568 µM	> 100 µM	0.0177 µM	0.044 µM	0.0415 µM	> 100 µM	4.7 µM	> 100 µM	–	–	0.161 µM	> 100 µM
CC(C)[C@](O)(c1ccc2cc(OC(F)F)c(OC(F)F)cc2c1)c1cn[nH]n1	17.8 µM and 16.9 µM	39.4 µM and 39.9 µM	23.5 µM and 19.5 µM	59.7 µM and 47.6 µM	17.2 µM and 15.6 µM	36.9 µM and 31.5 µM	22.1 µM and 15.4 µM	82.4 µM and 51.2 µM	–	22.4 µM and 35.9 µM	16 µM and 15.4 µM	32.6 µM and 33 µM	18.7 µM and 14 µM	36.6 µM and 29.1 µM	18.7 µM and 14.4 µM	50.3 µM and 34.6 µM	18.7 µM and 17.1 µM	36.6 µM and 35 µM	19.2 µM and 15.6 µM	36.8 µM and 32.2 µM
CC(C)=CCN=C(N)N	–	> 100 µM	–	> 100 µM	–	–	–	> 100 µM	–	> 100 µM	–	> 100 µM	–	–	–	> 100 µM	–	> 100 µM	–	> 100 µM
O=S(=O)(Nc1ncccn1)c1ccc(N=Nc2ccc(O)c3ncccc23)cc1	7.17 µM	58.1 µM	5.46 µM	29 µM	9.15 µM	76.1 µM	3 µM	13.1 µM	5.67 µM	29.4 µM	5.31 µM	21.8 µM	6.25 µM	59.4 µM	9.14 µM	87 µM	18.3 µM	43.6 µM	6.43 µM	53.4 µM
NS(=O)(=O)c1ccc(NC(=O)c2ccc(NC3=C(Cl)C(=O)N(Cc4ccccc4)C3=O)cc2)cc1	3.38 µM	12.5 µM	29.1 µM	> 100 µM	10.4 µM	22.1 µM	1.64 µM	4.5 µM	3.03 µM	> 100 µM	10.6 µM	26.5 µM	1.89 µM	7.88 µM	7.25 µM	> 100 µM	–	–	–	–
CC1=NN(C(=O)c2ccccc2O)C(=O)/C1=C/c1ccc([N+](=O)[O-])cc1	0.774 µM	> 100 µM	0.357 µM	> 100 µM	–	–	–	> 100 µM	0.392 µM	> 100 µM	–	> 100 µM	1.98 µM	7.05 µM and 1.32 µM	0.444 µM	> 100 µM	0.97 µM	–	2.06 µM	> 26.5 µM
COc1cc2c(/C=N\N=C(N)N)c(Cl)[nH]c2cc1C	14.4 µM	28.3 µM	18.6 µM	37.3 µM	–	–	10.8 µM	32.6 µM	6.47 µM	27.5 µM	12.2 µM	26.2 µM	5.49 µM	20.6 µM	15.2 µM	40.7 µM	34.5 µM	> 100 µM	1.65 µM	11.5 µM
Nc1ncnc2c1ncn2C1OC(COP(=O)(O)CP(=O)(O)O)C(O)C1O (configuration not stated)	–	> 100 µM	–	> 100 µM	–	> 100 µM	–	> 100 µM	–	> 100 µM	–	> 100 µM	–	–	–	> 100 µM	–	> 100 µM	–	> 100 µM
COc1cc(/C(Cl)=C/C=C/C(=O)c2c(C)[n+]([O-])c3ccc(Cl)cc3[n+]2[O-])cc(OC)c1OC	4.62 µM	> 50 µM	–	–	7.68 µM	24.4 µM	6.47 µM	35.7 µM	1.76 µM	> 50 µM	0.673 µM	1.74 µM	2.39 µM	10 µM	5.54 µM	14.2 µM	–	–	9.1 µM	> 50 µM
